Data from US4904462A, “Multiply-tritiated steroidal-20,17-spirolactones and their use as tracer compounds” (Schering Aktiengesellschaft, priority 1984, dated 1990).

Tests used:
[1] = target: T1, mineralocorticoid receptor (Rattus norvegicus, UniProt P22199); assay: Relative binding affinity, mineralocorticoid receptor, kidney cytosol, 3H-aldosterone displacement; conditions: kidney cytosol of adrenalectomized rats; 3H-aldosterone 8 nmol/l; aldosterone = 100% RBA
T1 construct: Cytosol from human uterus, rat kidneys and rat livers was prepared by homogenizing the tissues; from tissue; host or cells: kidney cytosol of adrenalectomized rats
T1 sequence (P22199 1-981): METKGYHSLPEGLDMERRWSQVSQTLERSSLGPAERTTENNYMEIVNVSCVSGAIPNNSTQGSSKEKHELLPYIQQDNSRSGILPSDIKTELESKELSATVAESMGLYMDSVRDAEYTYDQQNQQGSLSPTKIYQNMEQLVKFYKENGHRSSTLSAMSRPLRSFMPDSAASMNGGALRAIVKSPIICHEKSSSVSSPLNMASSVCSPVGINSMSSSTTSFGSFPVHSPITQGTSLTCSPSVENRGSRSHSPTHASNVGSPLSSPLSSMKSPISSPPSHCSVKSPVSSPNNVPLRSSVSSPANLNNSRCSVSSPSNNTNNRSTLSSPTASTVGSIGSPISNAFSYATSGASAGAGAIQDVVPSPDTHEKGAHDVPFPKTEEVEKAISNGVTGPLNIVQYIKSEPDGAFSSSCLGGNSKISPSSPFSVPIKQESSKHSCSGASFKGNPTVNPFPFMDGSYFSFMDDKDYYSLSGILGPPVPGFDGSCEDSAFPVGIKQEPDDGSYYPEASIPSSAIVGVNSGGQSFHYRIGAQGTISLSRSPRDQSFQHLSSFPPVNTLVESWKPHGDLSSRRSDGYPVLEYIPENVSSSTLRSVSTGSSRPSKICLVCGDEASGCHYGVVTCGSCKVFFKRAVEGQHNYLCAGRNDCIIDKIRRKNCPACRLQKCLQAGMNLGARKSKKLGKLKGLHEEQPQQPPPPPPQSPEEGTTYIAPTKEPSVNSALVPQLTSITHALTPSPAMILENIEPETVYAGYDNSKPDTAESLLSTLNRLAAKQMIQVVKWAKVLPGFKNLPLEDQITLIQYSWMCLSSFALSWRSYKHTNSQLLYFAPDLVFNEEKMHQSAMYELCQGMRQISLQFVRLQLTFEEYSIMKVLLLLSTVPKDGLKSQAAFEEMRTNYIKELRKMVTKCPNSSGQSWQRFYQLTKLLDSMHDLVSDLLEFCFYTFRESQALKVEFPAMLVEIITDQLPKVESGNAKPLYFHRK
Method: (§1) The relative binding affinities (RBA values) of aldosterone, prorenone as well as the compounds of this invention were determined, for the progesterone receptor, in human uterus cytosol, for the glucocorticoid receptor, in liver cytosol, and for the mineralocorticoid receptor, in the kidney cytosol of adrenalectomized rats. The relative binding affinity with respect to CBG was measured in the serum of pregnant women, diluted 1:30.
(§2) Cytosol from human uterus, rat kidneys and rat livers was prepared by homogenizing the tissues under cooling with the addition of receptor-stabilizing buffer (10 mmol/1 of KH2 PO4, 10 mmol/1 of K2 HPO4, 1.5 mmol/1 of EDTA, 3 mmol/1 of NaN3, 5 mmol/1 of monothioglycerol, 10% glycerol, pH 7.5). The homogenate was then centrifuged for 30 minutes at 105,000×g. The thus-formed supernatant centrifugation liquor corresponds to the tissue cytosol utilized for receptor testing. Then, in each case, 50 μl of a ^3 H-steroid (^3 H-R5020) for progesterone receptor testing, ^3 H-dexamethasonefor glucocorticoid receptor testing, ^3 H-aldosterone for mineralocorticoid receptor testing), dissolved in a buffer, was pipetted into test tubes (final concentration 8 nmol/1). Thereafter, the various steroids to be tested (in respectively six different concentrations: 10^-10 to 10^-5 mol/1) in 50 μl of buffer were added to the incubating tubes. Finally, 100 μl of cytosol was introduced into each tube by pipetting, and the incubation batch was thoroughly mixed and incubated overnight at 0°-4° C. Incubation was terminated by adding 0.5 ml of dextran-layered activated carbon (DCC) in a buffer. After 10 minutes of incubation under cooling, DCC was removed by centrifuging and thus the free, not receptor-bound steroid was separated from the receptor-bound steroid. The radioactivity was measured in the supernatant centrifugation liquors by means of a scintillation counter. All thus-determined values result from triple measurements. The measured dpm values were expressed in % of relative binding affinity, the RBA value referring to 50% displacement of the ^3 H-labeled ligand by its unlabeled authentic steroid (=100% RBA).

glucocorticoid receptor = target: T2, glucocorticoid receptor (Rattus norvegicus, UniProt P06536); assay: Relative binding affinity, glucocorticoid receptor, liver cytosol, 3H-dexamethasone displacement; conditions: for Relative binding affinity (RBA), Glucocorticoid Receptor: rat liver cytosol, 3H-dexamethasone 8 nmol/l, dexamethasone = 100% RBA
T2 construct: Cytosol from human uterus, rat kidneys and rat livers was prepared by homogenizing the tissues; from tissue; host or cells: rat liver cytosol
T2 sequence (P06536 1-795): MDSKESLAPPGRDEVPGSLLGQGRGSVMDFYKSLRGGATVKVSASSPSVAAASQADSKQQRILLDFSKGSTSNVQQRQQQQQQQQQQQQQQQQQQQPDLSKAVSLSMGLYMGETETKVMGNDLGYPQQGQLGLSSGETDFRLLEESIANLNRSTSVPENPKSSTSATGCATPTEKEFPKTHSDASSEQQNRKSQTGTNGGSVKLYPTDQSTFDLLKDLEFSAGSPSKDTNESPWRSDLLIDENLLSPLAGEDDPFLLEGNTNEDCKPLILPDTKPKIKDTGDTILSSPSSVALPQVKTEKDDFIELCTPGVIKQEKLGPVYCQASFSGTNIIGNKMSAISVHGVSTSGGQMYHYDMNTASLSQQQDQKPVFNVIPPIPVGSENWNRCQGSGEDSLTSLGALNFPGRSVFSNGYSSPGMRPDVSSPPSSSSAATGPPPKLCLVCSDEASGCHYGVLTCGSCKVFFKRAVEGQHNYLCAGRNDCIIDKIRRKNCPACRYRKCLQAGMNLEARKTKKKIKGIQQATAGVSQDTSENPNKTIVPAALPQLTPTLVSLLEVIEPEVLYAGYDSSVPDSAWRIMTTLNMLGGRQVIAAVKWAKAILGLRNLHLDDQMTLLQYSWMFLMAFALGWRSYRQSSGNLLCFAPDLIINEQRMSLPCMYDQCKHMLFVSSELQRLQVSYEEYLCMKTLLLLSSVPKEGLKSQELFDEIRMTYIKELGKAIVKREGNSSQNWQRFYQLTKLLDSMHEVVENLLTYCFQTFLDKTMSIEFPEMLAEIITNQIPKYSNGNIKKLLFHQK
Method: as §1, §2

progesterone receptor = assay: Relative binding affinity, progesterone receptor, human uterus cytosol, 3H-R5020 displacement; conditions: 3H-R5020 8 nmol/l, R5020 = 100% RBA
Method: as §1, §2

CBG = target: T3, CBG (Homo sapiens, UniProt P08185); assay: Relative binding affinity to CBG, serum of pregnant women, 3H-cortisol displacement; conditions: for Relative binding affinity (RBA), CBG: serum of pregnant women diluted 1:30, 3H-cortisol, cortisol = 100% RBA
T3 construct: a 1:30 dilution of the serum of pregnant women as the source of CBG; from tissue; host or cells: serum of pregnant women, diluted 1:30
T3 sequence (P08185 23-405): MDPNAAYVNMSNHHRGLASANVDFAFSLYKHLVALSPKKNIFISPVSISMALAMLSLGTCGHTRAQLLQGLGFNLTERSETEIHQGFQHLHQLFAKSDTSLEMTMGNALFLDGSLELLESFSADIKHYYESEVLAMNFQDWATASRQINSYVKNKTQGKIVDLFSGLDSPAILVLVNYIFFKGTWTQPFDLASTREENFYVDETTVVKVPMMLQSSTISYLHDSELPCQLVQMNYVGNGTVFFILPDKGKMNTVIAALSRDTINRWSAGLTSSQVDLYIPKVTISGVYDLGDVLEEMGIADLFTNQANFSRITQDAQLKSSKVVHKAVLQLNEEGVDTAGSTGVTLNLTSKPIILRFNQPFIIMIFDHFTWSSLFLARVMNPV
Method: as §1
As for the RBA values, for CBG an analogous procedure was followed, using ^3 H-cortisol and a 1:30 dilution of the serum of pregnant women as the source of CBG.

[2] = Metabolic stability under the conditions of the receptor test; type: in vitro ADME; conditions: in vitro receptor test conditions

| Compound | Relative binding affinity (RBA), Mineralocorticoid Receptor [1] [%] | Relative binding affinity (RBA), Glucocorticoid Receptor (glucocorticoid receptor) [%] | Relative binding affinity (RBA), Progesterone Receptor (progesterone receptor) [%] | Relative binding affinity (RBA), CBG (CBG) [%] | relative binding affinity in rat liver cytosol (glucocorticoid receptor; with respect to dexamethasone) [%] | relative binding affinity (RBA value) to the human serum protein CBG (CBG; with respect to cortisol) [%] | metabolic stability under the conditions of the receptor test [2] |
| --- | --- | --- | --- | --- | --- | --- | --- |
| 1α,2α;15β,16β-dimethylene-7α-methoxycarbonyl-3-oxo-17α-[18,19-^3 H4 ]pregn-4-ene-21,17-carbolactone [Example 7] | 600 | 0.2 | 0.2 | < 0.1 |  |  |  |
| 6μ,7β;15β,16β-dimethylene-3-oxo-17α-[18,19-^3 H4 ]pregna-1,4-diene-21,17-carbolactone [Example 3] | 90 | 0.9 | 50 | < 0.1 |  |  |  |
| 7α-(^3 H3)methoxycarbonyl-15β,16β-methylene-3-oxo-17α-[18,19-^3 H4 ]pregn-4-ene-21,17-carbolactone [Example 4] | 400 | 0.8 | 0.5 | < 0.1 |  |  |  |
| 7α-[1'-(^3 H3)-ethoxy]carbonyl-15β,16β-methylene-3-oxo-17α-pregn-4-ene-21,17-carbolactone [Example 8] | 800 | 0.8 | 0.95 | < 0.1 |  |  |  |
| 7α-[1'-(^3 H3)ethoxy]carbonyl-15β,16β-methylene-3-oxo-17α-pregna-1,4-diene-21,17-carbolactone [Example 6] | 600 | 0.4 | 0.2 | < 0.1 |  |  |  |
| C[C@]12CCC(=O)C=C1CC[C@@H]1[C@@H]2[C@@H](O)C[C@]2(C=O)[C@@H](C(=O)CO)CC[C@@H]12 [Aldosterone, reference compound] |  | 30 | 0.2 | 6 | 30 | 6 | is metabolized under in vitro conditions of receptor testing |
| C[C@]12CCC(=O)C=C1[C@@H]1C[C@@H]1[C@H]1[C@@H]3[C@@H]4C[C@@H]4[C@@]4(CCC(=O)O4)[C@@]3(C)CC[C@@H]12 [Prorenone, reference compound] | 200 | 3 | 32 | < 0.01 |  |  |  |
